From patent US20190031618A1, “BENZIMIDAZOLE DERIVATIVES USEFUL AS CB-1 INVERSE AGONISTS” (Janssen Pharmaceutica NV, priority 2015, published 2019)

Key:
[1] = target: Human CB1R (Cannabinoid receptor 1) (Homo sapiens, UniProt P21554); assay: CB-1 in vitro cAMP (HTRF) assay; type: cell-based; conditions: HEK cells, cAMP HTRF, 250 nM forskolin; mean where tested more than once; read-out: CB1 HEK_cAMP EC50
Source text: (§1) CB1 and CB2 receptors are Gi-coupled GPCR. Activation of CB1 and CB2 receptors results in a decrease in cAMP production. An inverse agonist of the CB1 or CB2 receptor results in the opposite effect, an increase of cAMP production. The principle of this assay is based on HTRF® technology (Homogeneous Time-Resolved Fluorescence). The method is a competitive immunoassay between native cAMP produced by cells and the cAMP labeled with the fluorophore d2. The tracer binding is quantified by a Mab anti-cAMP labeled with Eu3+TBP-NHS Cryptate (supplied as part of the assay kit). The specific signal (i.e. energy transfer) is inversely proportional to the concentration of cAMP in the standard or sample.
Human CB1R (Cannabinoid receptor 1) was stably transfected in HEK-293 cells (DiscoveRx, cat: 93-0200C1). Human CB2R (Cannabinoid receptor 2) was stably transfected in HEK-293 cells (DiscoveRx, cat: 93-0201C1).
One day prior to experiments media was warmed to 37° C. and the cryo-stored cells were thawed in a 37° C. water bath. The cells were then added to media (10× volume) and the mixture was centrifuged at 1000 RPM for 5 min. The supernate was removed and the cells were re-suspended in media. A sample of the cell suspension was evaluated on a Cedex XS automated cell counter (Innovatis Systems) to determine viable cells/ml. Additional media was added to the cells to achieve a final cell density of 4E5 cells/mL. […] Cells were removed from Row P (location of cAMP standards). […] The cell plates were lidded and stored for 15 minutes in a hood, then transferred to an incubator (37° C., 5% CO2, 95% humidity) overnight.
Test compounds (60 μL, 10 mM) were added to Column 1 and 13 (A1 through N1 and A13 through L13). Test compounds were serially diluted 1/3 by transferring and mixing 20 μl sample with 40 μL DMSO.
DMSO (40 μL) was added to wells of 384 well V bottom polystyrene plate: O2 through O11, M14 through M23, N14 through N23, and O14 through O23. […] The control was serially diluted 1/3 by transferring and mixing 20 μl sample with 40 μL DMSO. This process resulted 11 doses per control, 10 mM to 0.5 μM.
Cells plated the day prior to the assay in clear bottom plates were viewed on an inverse microscope to ensure confluency in the range of 60-75%.
A FLEXDROP (Perkin Elmer) was cleaned with ethanol then water, and primed with Buffer 2. A 384 well V bottom polypropylene plate containing d2 labelled cAMP and a second 384 well V bottom polypropylene plate containing anti-cAMP was prepared (50 μl per well). Media as “dumped” from the cell plate and 30 μL Buffer 1 was added to each well using a Multidrop. The content of the cell plate was again “dumped” and 10 μL Buffer 2 was added to each well using a Flexdrop. […] The cell plate was mixed (Speed 6, Lab-Line Instruments Titer Plate Shaker) and centrifuged (1000 RPMs, 1 min). […] The cell plate was again mixed (speed 6) and centrifuged (1000 RPMs, 1 min). The cell plate was incubated for 30 minutes at room temperature (˜27° C.). The contents of row P were removed and the cAMP standard dilutions were added in duplicate to Row P (P1-12 and P13-24). After incubation, 6 μL d2 labelled cAMP and 6 μL of Anti-cAMP were added to all wells of the cell plate using a BioMek FX (Beckman Coulter). The cell plate was again mixed (speed 6) and centrifuged (1000 RPMs, 1 min) and was incubated for 60 minutes in the dark at room Temp (˜27° C.).
After this final incubation, the cell plate was read in HTRF mode (fluorescence at 665 nm and 620 nm) on an Envision plate Reader (Perkin Elmer). The Envision reader outputs a ratio of channel 1/channel 2 fluorescence×10,000 (Normalized signal (NS)). Amount of cAMP in nM was calculated for each well (based on NS) from a cAMP standard curve located on each plate (at P1-12 and P13-24). EC50 values were determined from a 4-point fit (Hill equation) of a single 11-point compound dosing. Hill slope was fixed at 1.0.

[2] = target: Human CB2R (Cannabinoid receptor 2) (Homo sapiens, UniProt P34972); assay: CB-2 in vitro cAMP (HTRF) assay; type: cell-based; conditions: HEK cells, cAMP HTRF, 250 nM forskolin; mean where tested more than once; read-out: CB2 HEK_cAMP EC50
Human CB2R (Cannabinoid receptor 2), sequence (P34972 whole entry): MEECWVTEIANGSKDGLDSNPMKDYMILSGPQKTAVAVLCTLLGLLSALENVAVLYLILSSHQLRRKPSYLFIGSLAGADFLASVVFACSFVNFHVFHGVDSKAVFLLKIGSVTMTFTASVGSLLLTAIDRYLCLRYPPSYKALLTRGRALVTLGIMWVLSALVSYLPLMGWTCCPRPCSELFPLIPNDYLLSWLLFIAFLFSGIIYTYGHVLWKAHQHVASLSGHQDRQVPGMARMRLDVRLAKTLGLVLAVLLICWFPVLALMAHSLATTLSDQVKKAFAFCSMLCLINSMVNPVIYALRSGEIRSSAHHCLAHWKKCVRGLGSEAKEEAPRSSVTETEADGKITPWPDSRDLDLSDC
Source text: as §1
Human CB1R (Cannabinoid receptor 1) was stably transfected in HEK-293 cells (DiscoveRx, cat: 93-0200C1). Human CB2R (Cannabinoid receptor 2) was stably transfected in HEK-293 cells (DiscoveRx, cat: 93-0201C1). Cell cultures were maintained in media: DMEM (Invitrogen Cat#12430-054) supplemented with 10% HI FBS (Invitrogen Cat#16140-071), 1% L-glutamine (Invitrogen Cat#25030-081), 0.2 mg/ml Hygromycin B (Invitrogen Cat#10687-010), 600 μg/mL G418 (Invitrogen Cat#10131-035), and 1× Penn/Strep (Invitrogen 15140-122). After cell expansion, aliquots were cryo-stored in media containing 5% DMSO (Pierce Cat#20684).
One day prior to experiments media was warmed to 37° C. and the cryo-stored cells were thawed in a 37° C. water bath. The cells were then added to media (10× volume) and the mixture was centrifuged at 1000 RPM for 5 min. The supernate was removed and the cells were re-suspended in media. A sample of the cell suspension was evaluated on a Cedex XS automated cell counter (Innovatis Systems) to determine viable cells/ml. Additional media was added to the cells to achieve a final cell density of 4E5 cells/mL. The cells were then plated into 384 well PDL white solid bottom plates (Greiner, Cat#781945) at 20 μL per well using a Multidrop (Thermo Scientific). Cells were removed from Row P (location of cAMP standards). Two columns of cells were plated into a clear bottom 384 well PDL coated plate (Greiner, Cat#781944) to view confluence the day of the assay. The cell plates were lidded and stored for 15 minutes in a hood, then transferred to an incubator (37° C., 5% CO2, 95% humidity) overnight.
DMSO was added to all wells of 384 well V bottom polystyrene plate (Greiner, Cat#781280) except to columns 1 and 13, rows O and P and wells M13-M23 and N13-N23. Test compounds (60 μL, 10 mM) were added to Column 1 and 13 (A1 through N1 and A13 through L13). Test compounds were serially diluted 1/3 by transferring and mixing 20 μl sample with 40 μL DMSO.
DMSO (40 μL) was added to wells of 384 well V bottom polystyrene plate: O2 through O11, M14 through M23, N14 through N23, and O14 through O23. AM630 (also known as [6-iodo-2-methyl-1-[2-(4-morpholinyl)ethyl]-1H-indol-3-yl](4-methoxyphenyl)-methanone, Cayman Chemical, Cat#10006974) (60 μL, 10 mM) was added to O1; and 1-(2,4-dichlorophenyl)-7-[(4-fluorophenyl)methylene]-4,5,6,7-tetrahydro-N-1-piperidinyl-1H-benzimidazole-3-carboxamide (60 μL, 10 mM) was added to N13. The control was serially diluted 1/3 by transferring and mixing 20 μl sample with 40 μL DMSO. This process resulted 11 doses per control, 10 mM to […].
Cells plated the day prior to the assay in clear bottom plates were viewed on an inverse microscope to ensure confluency in the range of 60-75%. […]

Human CB1R (Cannabinoid receptor 1), sequence (P21554 whole entry): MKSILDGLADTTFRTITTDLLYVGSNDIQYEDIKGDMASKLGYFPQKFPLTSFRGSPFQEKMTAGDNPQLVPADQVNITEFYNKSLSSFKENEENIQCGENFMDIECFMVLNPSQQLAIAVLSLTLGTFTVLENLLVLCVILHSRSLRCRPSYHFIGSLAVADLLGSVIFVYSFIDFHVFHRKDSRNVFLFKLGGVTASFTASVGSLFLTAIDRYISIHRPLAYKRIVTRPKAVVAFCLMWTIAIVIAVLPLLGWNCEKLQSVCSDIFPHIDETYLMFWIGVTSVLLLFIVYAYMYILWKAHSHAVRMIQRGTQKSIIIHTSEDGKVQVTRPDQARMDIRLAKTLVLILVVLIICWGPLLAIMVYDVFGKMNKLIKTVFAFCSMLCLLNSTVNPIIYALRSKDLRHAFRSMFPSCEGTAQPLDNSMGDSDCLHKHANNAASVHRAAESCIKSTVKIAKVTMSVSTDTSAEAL

| SMILES | EC50 [1] [nM] | EC50 [2] [nM] |
| --- | --- | --- |
| O=C(OCc1ccccc1)N1CCC(n2c(C3CC3)nc3ccc(C(c4ccc(Cl)cc4)c4ccc(Cl)cc4)cc32)CC1 [Example 69] | 8.6 | 1210 |
| O=C(NCCO)c1cccc(CN2CCC(n3c(C4CC4)nc4ccc(C(c5ccc(Cl)cc5)c5ccc(Cl)cc5)cc43)CC2)c1 [Example 70] | 8.3 | 5820 |
| O=C(OC1CCCC1)N1CCC(n2c(C3CC3)nc3ccc(C(c4ccc(Cl)cc4)c4ccc(Cl)cc4)cc32)CC1 [Example 71] | 27.4 | 4880 |
| CCNC(=O)N1CCC(n2c(C3CC3)nc3ccc(C(c4ccc(Cl)cc4)c4ccc(Cl)cc4)cc32)CC1 [Example 73] | 18.5 | 5250 |
| O=C(NC1CCCC1)N1CCC(n2c(C3CC3)nc3ccc(C(c4ccc(Cl)cc4)c4ccc(Cl)cc4)cc32)CC1 [Example 74] | 70.6 | 5390 |
| O=C(NCc1ccccc1)N1CCC(n2c(C3CC3)nc3ccc(C(c4ccc(Cl)cc4)c4ccc(Cl)cc4)cc32)CC1 [Example 75] | 35.7 | 1150 |
| C#CCN1CCC(n2c(C3CC3)nc3ccc(C(c4ccc(Cl)cc4)c4ccc(Cl)cc4)cc32)CC1 [Example 76] | 6.7 | 2060 |
| O=C(O)CCc1nc2ccc(C(c3ccc(Cl)cc3)c3ccc(Cl)cc3)cc2n1C1CCN(S(=O)(=O)C(F)(F)F)CC1 [Example 78] | 151 | > 21000 |
| O=C(O)c1cccc(CN2CCC(n3c(C4CC4)nc4ccc(C(c5ccc(Cl)cc5)c5ccc(Cl)cc5)cc43)CC2)c1O [Example 79] | 32.6 | 5090 |
| O=C(O)c1ccc(C(F)(F)F)c(CN2CCC(n3c(C4CC4)nc4ccc(C(c5ccc(Cl)cc5)c5ccc(Cl)cc5)cc43)CC2)c1 [Example 80] | 86.6 | 11400 |
| O=C(O)c1cc(CN2CCC(n3c(C4CC4)nc4ccc(C(c5ccc(Cl)cc5)c5ccc(Cl)cc5)cc43)CC2)ccc1O [Example 81] | 14.1 | 3200 |
| O=C(O)c1ccc(O)c(CN2CCC(n3c(C4CC4)nc4ccc(C(c5ccc(Cl)cc5)c5ccc(Cl)cc5)cc43)CC2)c1 [Example 82] | 995 | > 42000 |
| O=C(O)c1cc(CN2CCC(n3c(C4CC4)nc4ccc(C(c5ccc(Cl)cc5)c5ccc(Cl)cc5)cc43)CC2)ccn1 [Example 83] | 42.6 | 11300 |
| FC(F)(F)c1ccccc1CN1CCC(n2c(C3CC3)nc3ccc(C(c4ccc(Cl)cc4)c4ccc(Cl)cc4)cc32)CC1 [Example 84] | 67.7 | > 10000 |
| O=C(O)c1cccc(CN2CCC(n3c(C4CC4)nc4ccc(C(c5ccc(Cl)cc5)c5ccc(Cl)cc5)cc43)CC2)c1F [Example 85] | 17.4 | 8100 |
| CC(c1ccc(C(=O)O)o1)N1CCC(n2c(C3CC3)nc3ccc(C(c4ccc(Cl)cc4)c4ccc(Cl)cc4)cc32)CC1 (stereo not drawn) [Example 86] | 15 | 10200 |
| CC(c1cccc(C(=O)O)c1)N1CCC(n2c(C3CC3)nc3ccc(C(c4ccc(Cl)cc4)c4ccc(Cl)cc4)cc32)CC1 (stereo not drawn) [Example 87] | 9 | 9000 |
| O=C(O)c1ccnc(CN2CCC(n3c(C4CC4)nc4ccc(C(c5ccc(Cl)cc5)c5ccc(Cl)cc5)cc43)CC2)c1 [Example 88] | 33 | > 10000 |
| Oc1cccc(CN2CCC(n3c(C4CC4)nc4ccc(C(c5ccc(Cl)cc5)c5ccc(Cl)cc5)cc43)CC2)c1 [Example 90] | 22.4 | > 10000 |
| O=C(O)c1cccc(CN2CCC(n3c(C4CC4)nc4ccc(C(c5ccc(Cl)cc5)c5ccc(Cl)cc5)cc43)CC2)c1Cl [Example 91] | 32.4 | 9400 |
| O=C(O)c1cc(CN2CCC(n3c(C4CC4)nc4ccc(C(c5ccc(Cl)cc5)c5ccc(Cl)cc5)cc43)CC2)cc(C(F)(F)F)c1 [Example 93] | 63.9 | 1750 |
| O=C(O)c1ccc(Cl)c(CN2CCC(n3c(C4CC4)nc4ccc(C(c5ccc(Cl)cc5)c5ccc(Cl)cc5)cc43)CC2)c1 [Example 94] | 26.1 | 4760 |
| O=C(O)c1cc(CN2CCC(n3c(C4CC4)nc4ccc(C(c5ccc(Cl)cc5)c5ccc(Cl)cc5)cc43)CC2)ccc1F [Example 95] | 11.2 | > 10000 |
| Cc1ccc(C(c2ccc(C)cc2)c2ccc3nc(C4CC4)n(C4CCN(Cc5cccc(C(=O)O)c5)CC4)c3c2)cc1 [Example 96] | 27.3 | 7920 |
| O=C(O)c1cccc(CN2CCC(n3c(C4CC4)nc4ccc(C(c5ccc(F)cc5)c5ccc(F)cc5)cc43)CC2)c1 [Example 97] | 18.7 | > 10000 |
| O=C(O)c1cccc(CN2CCC(n3c(C4CC4)nc4ccc(C(c5ccc(F)cc5)c5ccc(Cl)cc5)cc43)CC2)c1 (stereo not drawn) [Example 98] | 16.2 | > 10000 |
| O=C(O)c1cccc(CN2CCC(n3c(C4CC4)nc4ccc(C(c5ccc(Cl)cc5)c5ccc(C(F)(F)F)cc5)cc43)CC2)c1 (stereo not drawn) [Example 99] | 18.8 | 4740 |
